Results on 19 compounds are retold here after patent US20110003849A1, “SOLUBLE EPOXIDE HYDROLASE INHIBITORS, COMPOSITIONS CONTAINING SUCH COMPOUNDS AND METHODS OF TREATMENT” (priority 2008, published 2011).

What is called IC50 is the concentration needed to halve the response being measured.

The target in this experiment is T1, human sEH enzyme (Homo sapiens, UniProt P34913).
T1 construct: His-tag (N, cleaved yes); made in house; host or cells: E. coli (pET100 vector)
T1 sequence (P34913 1-555): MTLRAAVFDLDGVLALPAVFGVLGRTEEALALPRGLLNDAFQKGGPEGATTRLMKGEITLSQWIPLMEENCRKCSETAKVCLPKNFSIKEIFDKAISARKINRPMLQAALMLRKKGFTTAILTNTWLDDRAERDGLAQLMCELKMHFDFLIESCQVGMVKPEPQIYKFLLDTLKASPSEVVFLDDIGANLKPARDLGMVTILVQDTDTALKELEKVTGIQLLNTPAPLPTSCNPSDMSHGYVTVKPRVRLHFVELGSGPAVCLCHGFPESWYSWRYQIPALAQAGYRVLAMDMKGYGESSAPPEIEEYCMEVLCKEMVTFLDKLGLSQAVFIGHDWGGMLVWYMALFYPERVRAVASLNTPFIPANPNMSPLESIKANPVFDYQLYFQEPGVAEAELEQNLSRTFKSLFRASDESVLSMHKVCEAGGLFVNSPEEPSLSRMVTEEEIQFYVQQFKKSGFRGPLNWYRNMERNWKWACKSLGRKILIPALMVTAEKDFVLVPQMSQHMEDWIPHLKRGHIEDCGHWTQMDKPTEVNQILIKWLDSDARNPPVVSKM
The experiment is described as follows: sEH Human Enzyme Assay (fluorescence based enzyme in vitro assay). Type of experiment: biochemical. The settings on record: recombinant full length human sEH about 1 nM, fluorescence substrate S7 10 uM, pH7.0, 25° C.; read-out: IC50 [nM] for human sEH enzyme inhibition. The text has this:
Preparation of Recombinant sEH Human Enzyme
The DNA for expressing sEH was designed based on a […] sEH cDNA, modified to optimize for expression both in E. coli and insect cells. The designed DNA fragment encodes a protein sequence that is identical to full length human sEH, and the DNA was synthesized in vitro. The DNA was then subcloned into the pET100 vector that will generate a fusion protein with an N-terminal His-tag. The recombinant protein was expressed in E. coli. The sEH enzyme was affinity purified by a Ni^++ column. His-tag was removed by Enter Kinase (EK) digestion. The purified enzyme aliquots were frozen and held at −80° C. for later use.
Fluorescence Based Enzyme In Vitro Assay,
For each assay (100 ul), an aliquot of enzymes (about 1 nM final concentration) was incubated with a fluorescence substrate, S7 (10 uM final concentration), in sEH assay buffer (25 mM HEPES, pH7.0, 0.1 mg/ml BSA) in a 96-well plate. The kinetic reaction reading (Ex330/Em465) was conducted using a plate reader, Spectra max (Molecular Devices) at 25° C.
For the compound `CCOc1noc(C2CC3CCC2N(C(=O)Nc2ccc(C(F)(F)F)cc2)C3)n1` (stereo not shown) [Example 7], the IC50 was found to be 2 nM.
As for `Cc1noc(C2(C)CC3CCC2N(C(=O)NC2CC2c2ccccc2)C3)n1` (stereo not shown) [Example 16], the IC50 was determined as 30 nM.
For the compound `CN(C)c1noc(C2CC3CCC2N(C(=O)Nc2ccc(C(F)(F)F)cc2)C3)n1` (stereo not shown) [Example 6], the IC50 worked out at 1 nM.
For `Cc1noc(C2CC3CCC2N(C(=O)Nc2ccc(C(F)(F)F)cc2)C3)n1` (stereo not shown) [Example 2], the 50% inhibitory concentration (IC50) was determined as 2 nM.
As to `CCc1noc(C2CC3CC2N(C(=O)NC2CC2c2ccccc2)C3)n1` (stereo not shown) [Example 17], the IC50 stood at 48 nM.
For `CCc1noc(C2CC3CCC(C2)N3C(=O)Nc2ccc(C(F)(F)F)cc2)n1` (stereo not shown) [Example 5], the IC50 is 2 nM.
For `O=C(NC1CC1c1ccccc1)N1CC2CCC1C(c1nc(C(c3ccccc3)c3ccccc3)no1)C2` (stereo not shown) [Example 18] the value was 6 nM.
Regarding `Cc1noc(C2CC3CC2N(C(=O)Nc2ccc(C(F)(F)F)cc2)C3)n1` (stereo not shown) [Example 1], the 50% inhibitory concentration (IC50) was 7 nM.
For `CCOc1noc(C2CC3CCC2N(C(=O)NC2CC2c2ccccc2)C3)n1` (stereo not shown) [Example 15] the value was 14 nM; for `Cn1cc(-c2noc([C@@H]3C[C@H]4CC[C@H]3CN4C(=O)NC3CC3c3ccccc3)n2)c2ccccc21` (stereo partly shown) [Example 19], 4 nM; for `O=C(NC1CC1c1ccccc1)N1CC2CCC1C(c1nc(C3CC3)no1)C2` (stereo not shown) [Example 14], 18 nM.
The value for `O=C(Nc1ccc(C(F)(F)F)cc1)N1C2CCC1C(c1cccnc1)C2` (stereo not shown) [Example 11] was 11 nM.
Take `CN(C)c1noc(C2CC3CCC2N(C(=O)NC2CC2c2ccccc2)C3)n1` (stereo not shown) [Example 13]: the IC50 was 51 nM.
The value for `O=C(Nc1ccc(Cl)cc1)N1CC2(c3ccccc3)CCC1C2` (stereo not shown) [Example 10] was 1 nM.
As to `Cn1cc(-c2noc(C3(C)CC4CCC3N(C(=O)NC3CC3c3ccccc3)C4)n2)c2ccccc21` (stereo not shown) [Example 20], the IC50 was 8 nM.
As for `O=C(Nc1ccc(C(F)(F)F)cc1)N1C2CCC1C(c1cccnc1)C2` (stereo not shown) [Example 12], the IC50 came to 41 nM.
`O=C(Nc1ccc(C(F)(F)F)cc1)N1CC2(c3ccccc3)CCC1CC2` [Example 9]: the IC50 was determined as 1 nM.
The value for `CC(c1ccccc1)c1noc(C2CC3CCC2N(C(=O)Nc2ccc(C(F)(F)F)cc2)C3)n1` (stereo not shown) [Example 4] was 8 nM; that for `Cc1noc(C2(C)CC3CCC2N(C(=O)Nc2ccc(C(F)(F)F)cc2)C3)n1` (stereo not shown) [Example 3] was 2 nM.
